The values below come from ChEMBL document CHEMBL1201862, “PubChem BioAssay data set” (2004).

Some test systems named below: K562; U-251; HOP-62; NCI-H226; SF-268; SNB-75; IGROV-1; MDA-N; UO-31; SNB-19; RXF 393; MDA-MB-231; RPMI-8226; 786-0; MDA-MB-435; SF-295; SN12C; LOX IMVI.
What all share (assay): NCI anticancer screen, dose series, 48 h

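1) Cells in 96-well plates. 2) Compound, 48 h, 5 concentrations. 3) Linear interpolation between surrounding doses. 4) Unreached endpoint = highest concentration. The concentration for 50% growth inhibition is given as GI50.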 Calls of active or inactive are those of the source. Cut-off read from the data, not from the text of the source: active = GI50 up to about 1.1 µM and inactive = higher.

Consider `C[N+]1(C)CC=C(N2CCOCC2)CC1`, for which the GI50 in the assay with K562, in the assay on U-251, with HOP-62, in the assay on NCI-H226, in the assay on SF-268 and in the assay on SNB-75 was > 10 µM (inactive) in each case. For the same compound, the GI50 with IGROV-1, with MDA-N, in the assay on UO-31, in the assay on SNB-19, in the assay with RXF 393 and in the assay with MDA-MB-231 was > 10 µM (inactive) throughout. Besides, the GI50 in the assay with RPMI-8226, in the assay on 786-0, in the assay on MDA-MB-435, with SF-295, in the assay with SN12C and with LOX IMVI was > 10 µM (inactive) throughout.
Turning to `N=C1N(/N=C/c2ccccn2)/C(=N\c2ccccc2)C(=S)N1c1ccccc1`, the GI50 with K562 was 3.33 µM (inactive); in the assay with U-251, 8.18 µM (inactive); in the assay with HOP-62, 10.2 µM (inactive); in the assay on NCI-H226, 13.5 µM (inactive); in the assay with SF-268, 5.12 µM (inactive); in the assay with SNB-75 it was 15.3 µM (inactive). Moreover, the GI50 with IGROV-1 is 5.05 µM (inactive); in the assay with MDA-N it was 3.56 µM (inactive); in the assay on UO-31 it was 4.37 µM (inactive); with SNB-19, 15.4 µM (inactive); with RXF 393, 3.15 µM (inactive); in the assay on MDA-MB-231, 6.7 µM (inactive). For the same compound, the GI50 is > 100 µM (inactive) with RPMI-8226; 2.94 µM (inactive) in the assay with 786-0; 5.41 µM (inactive) in the assay on MDA-MB-435; 5.81 µM (inactive) in the assay with SF-295; 5.31 µM (inactive) in the assay with SN12C; 2.22 µM (inactive) in the assay with LOX IMVI.
`CCOC(=O)/C=C(/C(=O)OCC)n1cc(C)c(=O)n(Cc2cnnn2COCCOC(C)=O)c1=O`: the GI50 in the assay with K562 was 2.99 µM (inactive); in the assay with U-251, 20.4 µM (inactive); in the assay on HOP-62, 49.7 µM (inactive); with NCI-H226, 17.8 µM (inactive); with SF-268, 17.4 µM (inactive); with SNB-75, 24.9 µM (inactive). For the same compound, the GI50 with IGROV-1 was 17 µM (inactive); in the assay on MDA-N, 23.1 µM (inactive); with UO-31, 16.7 µM (inactive); with SNB-19, > 58.5 µM (inactive); in the assay with RXF 393, 2.64 µM (inactive); in the assay with MDA-MB-231, 16 µM (inactive). Further, the GI50 is 8.59 µM (inactive) with RPMI-8226; 7.31 µM (inactive) in the assay with 786-0; 14.4 µM (inactive) in the assay on MDA-MB-435; > 100 µM (inactive) with SF-295; 22.1 µM (inactive) in the assay with SN12C; 14.8 µM (inactive) in the assay on LOX IMVI.
In the case of `COc1ccc2oc(=O)c(-c3nc4ccccc4o3)cc2c1`, the GI50 with K562 is 69.5 µM (inactive); in the assay on U-251 it was > 100 µM (inactive); in the assay on HOP-62 it was 64.9 µM (inactive); with NCI-H226, > 100 µM (inactive); in the assay on SF-268, > 100 µM (inactive); with SNB-75 it was 55.1 µM (inactive). In addition, the GI50 in the assay on IGROV-1 is > 100 µM (inactive); in the assay with MDA-N it was 29.1 µM (inactive); with UO-31, > 100 µM (inactive); with SNB-19, > 100 µM (inactive); in the assay on RXF 393, 53.3 µM (inactive); in the assay with MDA-MB-231, 32.7 µM (inactive). Also, the GI50 in the assay with RPMI-8226 is 98.2 µM (inactive); in the assay on 786-0 it was > 100 µM (inactive); with MDA-MB-435, 16.7 µM (inactive); in the assay with SF-295 it was 61.7 µM (inactive); in the assay with SN12C, > 100 µM (inactive); in the assay with LOX IMVI it was > 100 µM (inactive).
For the compound `Cn1c(S)nc(C(N)=O)c1N`, the GI50 in the assay on K562, in the assay with U-251, in the assay on HOP-62, in the assay on NCI-H226, in the assay on SF-268 and in the assay on SNB-75 was > 100 µM (inactive) each time. Besides, the GI50 in the assay with IGROV-1, in the assay with MDA-N, with UO-31, in the assay with SNB-19, in the assay with RXF 393 and in the assay on MDA-MB-231 was > 100 µM (inactive) throughout. In addition, the GI50 with RPMI-8226, with 786-0, in the assay with MDA-MB-435, in the assay on SF-295, with SN12C and in the assay on LOX IMVI was > 100 µM (inactive) each time.
As for `COC(=O)/C(=C\Nc1cccc(C)n1)S(=O)(=O)c1ccc(C)cc1`, the GI50 in the assay with K562 is 21.1 µM (inactive); in the assay on U-251, 73.3 µM (inactive); in the assay with HOP-62, > 100 µM (inactive); in the assay on NCI-H226 it was 36.5 µM (inactive); in the assay with SF-268, 96.2 µM (inactive); in the assay on SNB-75, 71 µM (inactive). The GI50 was > 100 µM (inactive) in the assay with IGROV-1; 30.1 µM (inactive) with MDA-N; 36.4 µM (inactive) in the assay on UO-31; 39.2 µM (inactive) in the assay with SNB-19; 70.8 µM (inactive) in the assay on RXF 393; 64.3 µM (inactive) in the assay on MDA-MB-231. Further, the GI50 in the assay with RPMI-8226 was > 100 µM (inactive); in the assay on 786-0, > 100 µM (inactive); in the assay on MDA-MB-435, 39 µM (inactive); with SF-295, > 100 µM (inactive); in the assay on SN12C, > 100 µM (inactive); in the assay on LOX IMVI it was 79.4 µM (inactive).
As for `COC(=O)NCCc1n[nH]c2c1C(=O)C=C(N1CCOCC1)C2=O`, the GI50 in the assay on K562, in the assay with U-251, in the assay on HOP-62, in the assay with NCI-H226, in the assay with SF-268 and in the assay with SNB-75 was > 100 µM (inactive) each time. For the same compound, the GI50 with IGROV-1, in the assay with MDA-N, with UO-31, with SNB-19, in the assay on RXF 393 and in the assay with MDA-MB-231 was > 100 µM (inactive) each time. Besides, the GI50 in the assay on RPMI-8226, in the assay with 786-0, with MDA-MB-435, with SF-295, in the assay with SN12C and with LOX IMVI was > 100 µM (inactive) each time.
As for `CCC1C(=O)OCc2c1cc1n(c2=O)Cc2cc3ccccc3nc2-1` (stereo not drawn), the GI50 was 18.1 µM (inactive) in the assay with K562; 3.53 µM (inactive) in the assay on U-251; 2.08 µM (inactive) with HOP-62; 10.8 µM (inactive) in the assay on NCI-H226; 3.67 µM (inactive) in the assay with SF-268; 1.96 µM (inactive) with SNB-75. In addition, the GI50 in the assay on IGROV-1 was 17.6 µM (inactive); in the assay with MDA-N it was 45.6 µM (inactive); with UO-31, 2.37 µM (inactive); in the assay on SNB-19, 5.13 µM (inactive); in the assay on RXF 393, 23.8 µM (inactive); in the assay with MDA-MB-231, > 100 µM (inactive). Also, the GI50 was 12.4 µM (inactive) with RPMI-8226; 3.23 µM (inactive) in the assay with 786-0; 44.3 µM (inactive) with MDA-MB-435; 2.38 µM (inactive) in the assay on SF-295; 5.07 µM (inactive) in the assay on SN12C; 3.78 µM (inactive) in the assay on LOX IMVI.
On to `COc1ccc2[nH]c3c(C)c4ccnc(NCCCN(C)CCCNc5ccc6nnn7c8ccccc8c(=O)c5c67)c4c(C)c3c2c1`, for which the GI50 in the assay with K562 is 0.226 µM (active); with U-251 it was 0.223 µM (active); in the assay with HOP-62 it was 0.714 µM (active); in the assay on NCI-H226 it was > 10 µM (inactive); in the assay with SF-268, 0.679 µM (active); in the assay on SNB-75, 1.01 µM (active). In addition, the GI50 is 0.308 µM (active) with IGROV-1; 0.583 µM (active) with MDA-N; 0.603 µM (active) with UO-31; 0.711 µM (active) with SNB-19; 1.03 µM (active) in the assay with RXF 393; 0.181 µM (active) with MDA-MB-231. For the same compound, the GI50 with RPMI-8226 is 0.0474 µM (active); in the assay on 786-0, 0.237 µM (active); in the assay with MDA-MB-435 it was 0.362 µM (active); in the assay with SF-295, 0.14 µM (active); in the assay with SN12C, 0.242 µM (active); in the assay with LOX IMVI it was 0.228 µM (active).
In the case of `CCN1/C(=C/C#C/C(C)=C\c2sc3ccc(Cl)cc3[n+]2CC)Sc2ccc(Cl)cc21`, the GI50 in the assay on K562 was 0.552 µM (active); in the assay on U-251, 3.3 µM (inactive); with HOP-62, 4.88 µM (inactive); in the assay with NCI-H226, 3.82 µM (inactive); in the assay with SF-268, 5.22 µM (inactive); with SNB-75, 2.61 µM (inactive). Moreover, the GI50 with IGROV-1 is 4 µM (inactive); with MDA-N, 3.13 µM (inactive); in the assay with UO-31 it was 3.85 µM (inactive); with SNB-19 it was 4.09 µM (inactive); with RXF 393, 5.6 µM (inactive); with MDA-MB-231 it was 5.93 µM (inactive). Further, the GI50 with RPMI-8226 is 1.67 µM (inactive); in the assay on 786-0, 3.1 µM (inactive); in the assay with MDA-MB-435, 2.94 µM (inactive); in the assay on SF-295 it was 3.4 µM (inactive); in the assay on SN12C it was 3.57 µM (inactive); in the assay on LOX IMVI, 3.31 µM (inactive).
With `Cc1cccc2c(N)c3cccc(C(=O)NCC[N+](C)(C)Cc4sc(N5CCOCC5)nc4[N+](=O)[O-])c3nc12`, the GI50 with K562 is 1.16 µM (inactive); in the assay with U-251 it was 3.04 µM (inactive); in the assay on HOP-62, 0.491 µM (active); with NCI-H226 it was 1.51 µM (inactive); in the assay with SF-268, 23 µM (inactive); with SNB-75 it was 5.86 µM (inactive). The GI50 was 1.25 µM (inactive) in the assay with IGROV-1; 3.82 µM (inactive) with MDA-N; 4.17 µM (inactive) in the assay with UO-31; 4.82 µM (inactive) with SNB-19; 4.36 µM (inactive) in the assay on RXF 393; 2.28 µM (inactive) in the assay with MDA-MB-231. For the same compound, the GI50 was 3.13 µM (inactive) in the assay with RPMI-8226; 0.547 µM (active) in the assay on 786-0; 5.21 µM (inactive) in the assay on MDA-MB-435; 1.1 µM (active) in the assay on SF-295; 1.65 µM (inactive) in the assay with SN12C; 0.685 µM (active) with LOX IMVI.
